Values quoted from earlier work as cited in patent US20030087306A1, “Methods for identifying novel multimeric agents that modulate receptors” (priority 1998, published 2003).
Counter-ions that a name gives are not always drawn. Like-named read-outs stand apart in the source and are kept apart here. One block for each compound: values may come before it.

Key:
5-HT1C binding site = target: T1, 5-HT1C binding site (Homo sapiens, UniProt P28335)
T1 sequence (P28335 33-458): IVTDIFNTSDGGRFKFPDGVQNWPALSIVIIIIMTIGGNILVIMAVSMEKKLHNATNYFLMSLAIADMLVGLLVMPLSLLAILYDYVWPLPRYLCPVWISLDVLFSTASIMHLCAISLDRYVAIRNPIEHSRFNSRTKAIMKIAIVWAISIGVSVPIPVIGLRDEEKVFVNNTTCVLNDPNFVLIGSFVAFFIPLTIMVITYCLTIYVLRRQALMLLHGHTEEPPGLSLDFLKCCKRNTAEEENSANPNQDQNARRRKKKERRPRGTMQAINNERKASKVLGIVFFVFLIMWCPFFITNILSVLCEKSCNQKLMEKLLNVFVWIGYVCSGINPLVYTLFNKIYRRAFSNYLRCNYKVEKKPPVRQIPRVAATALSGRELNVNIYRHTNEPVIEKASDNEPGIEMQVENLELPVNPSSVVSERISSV

5-HT1E binding site = 5-HT1E binding site (Homo sapiens, UniProt P28566)
5-HT1B binding site = 5-HT1B binding site (Rattus norvegicus, UniProt P28564)
5-HT2 binding site = 5-HT2 binding site (Homo sapiens, UniProt P28223)
5-HT1A binding site = target: T2, 5-HT1A binding site (Homo sapiens, UniProt P08908)
T2 sequence (P08908 1-422): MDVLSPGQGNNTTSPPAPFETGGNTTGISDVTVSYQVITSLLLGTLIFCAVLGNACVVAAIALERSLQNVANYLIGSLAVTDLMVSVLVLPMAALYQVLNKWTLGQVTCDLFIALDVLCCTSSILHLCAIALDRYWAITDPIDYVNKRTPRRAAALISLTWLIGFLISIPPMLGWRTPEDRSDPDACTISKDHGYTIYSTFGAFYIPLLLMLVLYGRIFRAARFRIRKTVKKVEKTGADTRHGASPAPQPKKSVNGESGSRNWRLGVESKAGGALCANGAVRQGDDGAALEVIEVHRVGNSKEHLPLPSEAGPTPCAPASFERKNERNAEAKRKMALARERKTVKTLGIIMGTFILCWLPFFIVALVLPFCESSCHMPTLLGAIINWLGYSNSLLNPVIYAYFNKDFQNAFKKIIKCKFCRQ

5-HT1D receptor [1] = target: T3, 5-HT1D receptor; conditions: forskolin-stimulated adenylyl cyclase, guinea-pig substantia nigra
T3 construct: rows headed: efficacy compared to 5-HT; other: forskolin-stimulated adenylyl cyclase, guinea-pig substantia nigra

5-HT1D receptor [2] = conditions: K+-evoked [3H]-5-HT release, guinea-pig frontal cortex slices
5-HT1F receptors = target: T4, 5-HT1F receptors (Homo sapiens, UniProt P30939)
T4 construct: expressed in transfected cells; host or cells: NIH-3T3 cells
T4 sequence (P30939 1-366): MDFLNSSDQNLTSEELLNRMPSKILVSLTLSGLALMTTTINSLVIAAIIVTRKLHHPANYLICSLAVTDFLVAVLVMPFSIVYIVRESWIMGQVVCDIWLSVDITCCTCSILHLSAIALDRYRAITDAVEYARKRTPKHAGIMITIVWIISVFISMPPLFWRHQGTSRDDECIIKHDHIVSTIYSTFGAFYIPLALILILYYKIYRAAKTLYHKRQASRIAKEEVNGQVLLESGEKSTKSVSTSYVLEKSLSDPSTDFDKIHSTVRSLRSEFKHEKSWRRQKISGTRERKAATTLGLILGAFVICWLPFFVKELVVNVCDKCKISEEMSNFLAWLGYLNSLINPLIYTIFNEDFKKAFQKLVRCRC

5-HT1D receptor [3] = conditions: for potency (pD2 range): rabbit saphenous vein rings
[4] = test system: angiotensin II receptor sites; conditions: rat adrenal cortical membranes and cultured rat smooth muscle cells
AT2 receptor = target: T5, AT2 receptor (Homo sapiens, UniProt P50052)
T5 sequence (P50052 1-363): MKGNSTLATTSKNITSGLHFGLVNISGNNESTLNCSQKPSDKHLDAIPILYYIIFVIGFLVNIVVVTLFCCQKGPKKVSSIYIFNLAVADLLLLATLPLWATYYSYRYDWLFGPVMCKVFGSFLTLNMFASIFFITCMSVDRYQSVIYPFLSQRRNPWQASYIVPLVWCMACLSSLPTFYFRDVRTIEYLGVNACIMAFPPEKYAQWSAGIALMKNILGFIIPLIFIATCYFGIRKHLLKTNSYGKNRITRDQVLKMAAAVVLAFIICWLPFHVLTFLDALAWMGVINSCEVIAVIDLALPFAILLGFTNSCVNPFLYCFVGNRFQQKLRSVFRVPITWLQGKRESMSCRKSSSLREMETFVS

5-HT1 receptor = target: T6, 5-HT1 receptor (Cricetulus griseus, UniProt P46636); conditions: luciferase expression, CHO cells
T6 construct: These CHO cells are screened for endogenous G protein-coupled receptors; endogenous in cells; host or cells: CHO cells with a cAMP-responsive luciferase reporter

human coronary artery = conditions: for effectiveness in causing contraction of human isolated coronary artery: endothelium-denuded segments, in vitro
β2-adrenergic receptor = β2-adrenergic receptor (Homo sapiens, UniProt P07550); conditions: for onset of action (in words) / duration of action: human, in vivo
[5] = test system: cholinergic receptors on bronchial smooth muscle
AT1 receptor = target: T7, AT1 receptor (Homo sapiens, UniProt P30556)
T7 sequence (P30556 1-359): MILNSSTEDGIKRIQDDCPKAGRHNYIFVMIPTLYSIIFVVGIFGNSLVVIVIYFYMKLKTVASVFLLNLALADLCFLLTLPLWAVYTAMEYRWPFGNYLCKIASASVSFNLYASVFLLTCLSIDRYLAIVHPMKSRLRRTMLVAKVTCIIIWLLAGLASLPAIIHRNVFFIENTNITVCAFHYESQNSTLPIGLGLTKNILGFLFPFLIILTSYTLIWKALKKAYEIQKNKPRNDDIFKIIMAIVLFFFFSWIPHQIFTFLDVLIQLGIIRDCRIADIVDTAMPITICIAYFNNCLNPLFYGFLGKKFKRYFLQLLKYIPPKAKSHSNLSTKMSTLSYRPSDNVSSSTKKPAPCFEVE

neuropeptide release = conditions: trigeminal ganglion stimulation in cats

Chain of β2-adrenergic receptor (P07550 whole entry): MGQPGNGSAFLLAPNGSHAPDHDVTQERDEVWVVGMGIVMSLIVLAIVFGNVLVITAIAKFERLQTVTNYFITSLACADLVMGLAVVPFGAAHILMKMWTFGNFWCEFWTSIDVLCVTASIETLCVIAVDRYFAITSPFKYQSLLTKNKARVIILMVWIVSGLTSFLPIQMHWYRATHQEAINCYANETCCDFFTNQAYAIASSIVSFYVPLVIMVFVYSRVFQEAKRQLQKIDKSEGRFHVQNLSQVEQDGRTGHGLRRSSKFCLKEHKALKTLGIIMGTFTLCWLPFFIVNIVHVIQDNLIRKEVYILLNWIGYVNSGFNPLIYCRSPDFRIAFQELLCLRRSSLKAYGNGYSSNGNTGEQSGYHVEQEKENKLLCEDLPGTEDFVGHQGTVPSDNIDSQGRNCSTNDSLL
T6 sequence (P46636 whole entry): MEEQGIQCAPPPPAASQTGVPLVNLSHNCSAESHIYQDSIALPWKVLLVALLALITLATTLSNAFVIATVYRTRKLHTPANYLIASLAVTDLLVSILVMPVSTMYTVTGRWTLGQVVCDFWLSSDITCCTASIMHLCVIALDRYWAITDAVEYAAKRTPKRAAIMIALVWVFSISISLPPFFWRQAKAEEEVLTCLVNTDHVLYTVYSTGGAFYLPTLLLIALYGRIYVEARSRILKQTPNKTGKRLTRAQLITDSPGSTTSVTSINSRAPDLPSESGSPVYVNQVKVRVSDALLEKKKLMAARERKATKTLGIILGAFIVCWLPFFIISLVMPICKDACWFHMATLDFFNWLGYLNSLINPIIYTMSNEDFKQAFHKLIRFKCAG
Chain of 5-HT1B binding site (P28564 whole entry): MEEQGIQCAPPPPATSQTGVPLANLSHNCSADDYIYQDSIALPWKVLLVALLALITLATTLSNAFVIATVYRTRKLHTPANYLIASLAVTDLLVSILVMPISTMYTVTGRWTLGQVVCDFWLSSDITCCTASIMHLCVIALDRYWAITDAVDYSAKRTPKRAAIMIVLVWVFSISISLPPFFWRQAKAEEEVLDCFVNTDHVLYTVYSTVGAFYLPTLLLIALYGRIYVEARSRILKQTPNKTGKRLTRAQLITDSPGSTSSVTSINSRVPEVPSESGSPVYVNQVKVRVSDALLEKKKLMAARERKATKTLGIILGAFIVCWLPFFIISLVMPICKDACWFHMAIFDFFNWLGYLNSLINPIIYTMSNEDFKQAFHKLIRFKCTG
Chain of 5-HT2 binding site (P28223 whole entry): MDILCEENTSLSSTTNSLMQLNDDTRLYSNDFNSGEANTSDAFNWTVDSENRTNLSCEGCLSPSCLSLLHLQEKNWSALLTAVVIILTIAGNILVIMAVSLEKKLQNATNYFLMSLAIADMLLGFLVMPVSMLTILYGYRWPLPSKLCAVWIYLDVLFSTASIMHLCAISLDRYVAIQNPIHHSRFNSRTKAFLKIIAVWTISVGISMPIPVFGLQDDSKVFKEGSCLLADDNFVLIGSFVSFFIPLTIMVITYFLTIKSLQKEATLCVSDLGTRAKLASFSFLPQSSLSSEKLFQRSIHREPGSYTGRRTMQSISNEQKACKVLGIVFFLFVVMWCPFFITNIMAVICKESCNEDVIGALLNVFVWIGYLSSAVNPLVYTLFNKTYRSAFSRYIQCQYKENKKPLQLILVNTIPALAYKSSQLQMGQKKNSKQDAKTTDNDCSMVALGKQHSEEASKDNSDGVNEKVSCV
Chain of 5-HT1E binding site (P28566 whole entry): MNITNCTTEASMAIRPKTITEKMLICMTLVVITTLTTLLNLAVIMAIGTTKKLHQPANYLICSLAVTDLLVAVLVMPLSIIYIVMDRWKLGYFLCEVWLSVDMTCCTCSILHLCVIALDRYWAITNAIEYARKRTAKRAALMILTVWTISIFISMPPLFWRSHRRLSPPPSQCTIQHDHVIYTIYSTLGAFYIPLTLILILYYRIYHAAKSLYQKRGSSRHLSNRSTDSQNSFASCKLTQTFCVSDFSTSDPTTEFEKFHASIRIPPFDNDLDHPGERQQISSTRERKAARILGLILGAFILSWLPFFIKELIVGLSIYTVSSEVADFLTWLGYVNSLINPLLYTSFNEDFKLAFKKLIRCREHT

Compound: CS(=O)(=O)Nc1ccc(Cc2noc(-c3ccc4[nH]cc(CCN)c4c3)n2)cc1 [L-694,247]
pIC50 (5-HT1C binding site): 6.42
pIC50 (5-HT1E binding site): 5.66
affinity (pIC50) (5-HT1B binding site): 9.08
pIC50 (5-HT2 binding site): 6.50
affinity (pIC50) (5-HT1D binding site): 10.03
pIC50 (5-HT1A binding site): 8.64
pEC50 (5-HT1D receptor [1]): 9.1
pEC50 (5-HT1D receptor [2]): 9.4

receptor reserve (5-HT1F receptors; 5-HT-induced inhibition of FSCA): 90%
receptor occupancy required for half-maximal response (5-HT1F receptors; NIH-3T3 cells): about 10%
potency (pD2 range) (5-HT1D receptor [3]): 6.2-7.1
Compound: NCCc1c[nH]c2ccc(O)cc12 [Example 5-HT]

Compound: c1ccc2c(c1)CC[C@H](CNCCCNC1=NCCCN1)O2 [alniditan, (−)—(R)-N-[3,4-dihydro-2H-1-benzopyran-2-ylmethyl-N′-(1,4,5,6-tetrahydro-2-pyrimidinyl)-1,3-propanediaminedihydrochloride]
potency compared with sumatriptan (5-HT1-like receptor; anesthetized dogs): higher
common carotid arterial blood flow (5-HT1-like receptor; anesthetized dogs, 0.63-80 μg/kg i.v.): reduces common carotid arterial blood flow
effect on other cardiovascular variables (5-HT1-like receptor; coronary, mesenteric and renal arterial blood flow, vascular and airway resistance): comparatively little effect

inhibition of specific binding of 125I-angiotensin II [4]: inhibits the specific binding
affinity (AT2 receptor): low affinity
Compound: CCCCc1nc(Cl)c(CO)n1Cc1ccc(-c2ccccc2-c2nn[nH]n2)cc1 [losartan]

Compound: CC(C)NCC(O)COc1cccc2[nH]ccc12 (centres unmarked) [pindolol]
reversal of the response to 5-HT (5-HT1 receptor): reversed

Compound: CC(C)(C)NCC(O)COc1cccc2[nH]c(C#N)cc12 (centres unmarked) [cyanopindolol]
reversal of the response to 5-HT (5-HT1 receptor): reversed

Compound: CN(C)CCc1c[nH]c2ccc(Cn3cncn3)cc12 [rizatriptan]
maximum contractile response (human coronary artery; compared with sumatriptan): lower maximum contractile response
effectiveness in causing contraction of human isolated coronary artery (human coronary artery): less effective than sumatriptan
effectiveness in causing contraction of human isolated coronary artery (human coronary artery; listed as MK462): significantly less efficacious than 5-HT
effectiveness in causing contraction of human isolated coronary artery (human coronary artery; listed as MK-462): significantly less effective than sumatriptan

reversal of the response to 5-HT (5-HT1 receptor): not
Compound: O=C(c1ccc(F)cc1)C1CCN(CCn2c(=O)[nH]c3ccccc3c2=O)CC1 [ketanserin]

onset of action (in words) (β2-adrenergic receptor): within minutes
duration of effect after inhalation (β2-adrenergic receptor): several hours
duration of effects after oral administration (β2-adrenergic receptor; oral): 3 to 4 h
Compound: CC(C)NCC(O)c1cc(O)cc(O)c1 (centres unmarked) [Metaproterenol]

affinity (pIC50) (5-HT1D binding site): 8.22
efficacy, maximal contractile response (Emax) (5-HT1D receptor [3]; compared to 5-HT and 5-CT): significantly greater
Compound: CNS(=O)(=O)Cc1ccc2[nH]cc(CCN(C)C)c2c1 [sumatriptan]
effectiveness in causing contraction of human isolated coronary artery (human coronary artery): significantly less efficacious than 5-HT

Compound: CC(C)[N+]1(C)[C@@H]2CC[C@H]1C[C@@H](OC(=O)C(CO)c1ccccc1)C2 (some centres unmarked) [Ipratropium]
persistence of significant effects ([5]; after inhalation): more than 4 hours
time over which maximal responses develop ([5]; after inhalation): 30 to 90 min
duration of useful response ([5]; some asthmatic patients): up to 6 hours

Compound: CC(Cc1ccc(O)cc1)NCC(O)c1cc(O)cc(O)c1 (centres unmarked) [Fenoterol]
duration of action (β2-adrenergic receptor): 2 to 3 h
onset of action (in words) (β2-adrenergic receptor): rapid onset

Compound: Cc1cc(Cn2cnc3c2CC(C(=O)O)N(C(=O)C(c2ccccc2)c2ccccc2)C3)ccc1N (centres unmarked) [PD 123177]
affinity (AT1 receptor; AT1 receptor): low affinity

duration of action (β2-adrenergic receptor): about 5 hours
onset of action (in words) (β2-adrenergic receptor): rapid onset of action
Compound: CCC(NC(C)C)C(O)c1ccc(O)c2[nH]c(=O)ccc12 (centres unmarked) [Procaterol]

selectivity for the AT subtypes (AT1 receptor; AT1 vs AT2): no selectivity
Compound: angiotensin II

Compound: NCCc1c[nH]c2ccc(C(N)=O)cc12 [Example 5-CT, 5-carboxamidotryptamine]
potency (pD2 range) (5-HT1D receptor [3]): 7.2-7.6

Compound: CN(C)CCc1c[nH]c2ccc(C[C@H]3COC(=O)N3)cc12 [Zolmitriptan]
neuropeptide release (neuropeptide release): reduces neuropeptide release

duration of effect after inhalation (β2-adrenergic receptor): 3 to 6 h
Compound: Cc1ccc(C(=O)Oc2ccc(C(O)CNC(C)(C)C)cc2OC(=O)c2ccc(C)cc2)cc1 (centres unmarked) [bitolterol]
